Measured values from patent publication US8889727B2, “Topical antifungal agent” (Meiji Seika Pharma Co., Ltd., priority 2011, dated 2014).
In brackets after ≈: the same amount, converted by molar mass. Where a name gives a salt, the structure may show the parent alone.

Tests used:
[1] = test system: T. rubrum ATCC10218; assay: Measurement of antifungal activity (MIC, WST8 growth inhibition); type: cell-based; conditions: Trichophyton rubrum, 96 h; 80% growth inhibition concentration; T. rubrum ATCC10218, RPMI1640/MOPS, 28° C., 4 days
Protocol: (§1) The compounds for evaluation were dissolved in dimethyl sulfoxide (DMSO) and used. As the test medium, RPMI1640 medium containing 0.165 M 3-morpholino propane sulfonic acid (MOPS) was used. As the test strain, T. mentagrophytes ATCC18748 or T. rubrum ATCC10218 was used. 100 μL of the test strain each at a concentration of 1×10^4 conidia/mL was dispensed, mixed with compounds for evaluation on 96 well half area plate so that the concentration of DMSO becomes 1%, and cultured at 28° C. for 3 days (for T. mentagrophytes) or for 4 days (for T. rubrum). Then, 5 μL of Cell Counting Kit8 (WST8) was added and the absorbances at 450 nm and 595 nm was measured as background. Subsequently, they were incubated at 28° C. for 5 hours (for T. mentagrophytes) or overnight (for T. rubrum) to color, and again the absorbances at 450 nm and 595 nm was measured, and then calculated the growth inhibition percentages using the differences from the background, and 80% growth inhibition concentration was regarded as MIC (μg/ml). Measurement of antifungal activity was conducted by the following method. Compounds for evaluation were dissolved in dimethyl sulfoxide (DMSO) and used. As the test medium, RPMI1640 medium containing 0.165 M 3-morpholinopropane sulfonic acid (MOPS) was used. As the test strain, T. mentagrophytes ATCC18748 or T. rubrum ATCC10218 was used. 100 μL of the test strain was dispensed at a concentration of 1×10^4 conidia/mL, mixed with compounds for evaluation on 96 well half area plate so that the concentration of DMSO becomes 1%, and cultured at a culture temperature of 28° C. for 3 days (for T. mentagrophytes) or for 4 days (for T. rubrum). Then, 5 μL of Cell Counting Kit8 (WST8) was added and the absorbances at 450 nm and 595 nm was measured as background. Subsequently, they were incubated at 28° C. for 5 hours (for T. mentagrophytes) or overnight (for T. rubrum), and again measured the absorbances at 450 nm and 595 nm was measured, and then calculated the growth inhibition percentages using the differences from the background, and 80% growth inhibition concentration was regarded as MIC (μg/ml).

[2] = test system: T. mentagrophytes ATCC18748; assay: as above; type: cell-based; conditions: Trichophyton mentagrophytes, 72 h; 80% growth inhibition concentration; T. mentagrophytes ATCC18748, RPMI1640/MOPS, 28° C., 3 days
Protocol: as §1

[3] = Nail permeability test (bovine hoof slice on agarose); type: in vitro ADME; conditions: 2 μL of 10 mg/mL solution on bovine hoof slice (about 100 μm), 28° C., 5 days
Protocol: Compounds for evaluation were each dissolved in a solution of ethyl acetate:propylene glycol (1:1) or dimethyl sulfoxide at a concentration of 10 mg/mL. 2 μL each of the solutions was added to a bovine hoof slice placed on a low-melting-point agarose. After incubation at 28° C. for 5 days, the agaroses were collected, distilled water was added thereto, and the mixtures were heated and dissolved. The concentrations of the compound in the solutions were determined using a high performance liquid chromatography/mass spectrometry apparatus to obtain the amounts of the agents permeated through the hoof and to calculate the permeabilities of the respective agents. Since the permeability of bovine hoof and human nail correlates as described in J. Pharma. Pharmacol., vol. 49, pp. 866-872, 1997, the nail permeability test was conducted using a bovine hoof in the present invention. Example compounds and comparative compounds (amorolfine hydrochloride, terbinafine hydrochloride and ciclopirox) were each dissolved in a solution of ethyl acetate:propylene glycol (1:1) or dimethyl sulfoxide at a concentration of 10 mg/mL. […] The concentrations of the compounds in the solutions were determined using a high performance liquid chromatography/mass spectrometry apparatus to obtain the amounts of the agents permeated through the nail and calculate the permeabilities of the respective agents.

SMILES	MIC [1]	MIC [2]	Nail permeability [3]
CN(C/C=C/C#CC(C)(C)C)Cc1cccc2ccccc12 [Terbinafine hydrochloride, reference compound]	≤ 2 µg/mL	≤ 1 µg/mL	E (<0.1%)
CCC(C)(C)c1ccc(CC(C)CN2C[C@@H](C)O[C@@H](C)C2)cc1 (some centres unmarked) [Amorolfine hydrochloride, reference compound]	≤ 2 µg/mL	≤ 1 µg/mL	E (<0.1%)
COC(=O)c1ccc(-n2nc(C)cc2C)c(O)c1 [Example 35, Methyl 4-(3,5-dimethyl-1H-pyrazol-1-yl)-3-hydroxybenzene carboxylate]	16 to 32 µg/mL (≈ 65 to 130 µM)	16 to 32 µg/mL (≈ 65 to 130 µM)	–
Cc1cc(C)n(-c2cccc(O)c2O)n1 [Example 15, 3-(3,5-Dimethyl-1H-pyrazol-1-yl)benzene-1,2-diol]	16 to 32 µg/mL (≈ 78.3 to 157 µM)	16 to 32 µg/mL (≈ 78.3 to 157 µM)	–
Cc1cc(C(F)(F)F)nn1-c1ccccc1O [Example 5, 2-(5-Methyl-3-trifluoromethyl-1H-pyrazol-1-yl)phenol]	32 to 64 µg/mL (≈ 132 to 264 µM)	16 to 32 µg/mL (≈ 66.1 to 132 µM)	–
Cc1cc(C)n(-c2ccc(C(=O)N(C)C)cc2O)n1 [Example 38, 4-(3,5-Dimethyl-1H-pyrazol-1-yl)-3-hydroxy-N,N-dimethylbenzamide]	4 to 16 µg/mL (≈ 15.4 to 61.7 µM)	16 to 32 µg/mL (≈ 61.7 to 123 µM)	–
CC(=O)Oc1ccc(-n2nc(C)cc2C)c(O)c1 [Example 57, 4-(3,5-dimethyl-1H-pyrazol-1-yl)-3-hydroxyphenyl acetate]	4 to 16 µg/mL	2 to 8 µg/mL	–

Now from value to molecule:

MIC [1]	MIC [2]	Nail permeability [3]	SMILES
≤ 2 µg/mL	≤ 1 µg/mL	–	Cc1nn(-c2ccc(Br)cc2O)c(C)c1Cl [Example 55, 5-bromo-2-(4-chloro-3,5-dimethyl-1H-pyrazol-1-yl)phenol]
4 to 16 µg/mL (≈ 19.4 to 77.6 µM)	2 to 8 µg/mL (≈ 9.7 to 38.8 µM)	–	Cc1cc(C)n(-c2ccc(F)cc2O)n1 [Example 25, 2-(3,5-Dimethyl-1H-pyrazol-1-yl)-5-fluorophenol]
> 64 µg/mL	16 to 32 µg/mL (≈ 78.3 to 157 µM)	–	Cc1cc(C)n(-c2cc(O)ccc2O)n1 [Example 16, 2-(3,5-Dimethyl-1H-pyrazol-1-yl)benzene-1,4-diol]
32 to 64 µg/mL (≈ 144 to 287 µM)	16 to 32 µg/mL (≈ 71.9 to 144 µM)	–	Cc1cc(C)n(-c2cc(Cl)ccc2O)n1 [Example 11, 4-Chloro-2-(3,5-dimethyl-1H-pyrazol-1-yl)phenol]
4 to 16 µg/mL (≈ 15.6 to 62.4 µM)	2 to 8 µg/mL (≈ 7.81 to 31.2 µM)	–	Cc1cc(C)n(-c2ccc(C(F)(F)F)cc2O)n1 [Example 50, 2-(3,5-Dimethyl-1H-pyrazol-1-yl)-5-trifluoromethylphenol]
